The record followed here is US9499811B2, “Ligation enhancement” (New England Biolabs, Inc., priority 2011, dated 2016).

Test [1] has as its target T1, T4 DNA ligase (Enterobacteria phage T4, UniProt P00970).
T1 sequence (P00970 1-487): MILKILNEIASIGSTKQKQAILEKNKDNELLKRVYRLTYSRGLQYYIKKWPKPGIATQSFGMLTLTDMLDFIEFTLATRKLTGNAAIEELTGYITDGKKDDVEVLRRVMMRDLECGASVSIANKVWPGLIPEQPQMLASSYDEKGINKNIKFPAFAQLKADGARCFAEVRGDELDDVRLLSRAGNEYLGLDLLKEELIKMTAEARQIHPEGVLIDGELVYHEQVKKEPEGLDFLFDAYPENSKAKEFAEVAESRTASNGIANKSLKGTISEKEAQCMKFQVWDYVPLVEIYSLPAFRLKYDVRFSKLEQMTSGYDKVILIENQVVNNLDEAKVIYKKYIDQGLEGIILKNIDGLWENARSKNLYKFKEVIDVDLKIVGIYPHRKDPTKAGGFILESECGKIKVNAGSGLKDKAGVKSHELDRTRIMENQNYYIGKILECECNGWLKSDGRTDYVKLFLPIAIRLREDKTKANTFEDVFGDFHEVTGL
As to the kind of experiment: Recircularization of AhdI-linearized pUC19 and transformation of NEB Turbo cells (FIGS. 1A-C). The following applies: 0, 4%, 6% 1,2-PrD, 400 U T4 DNA ligase, 20 min 16 C. The arrangement: purchased NEB (New England Biolabs), Ipswich, Mass. #M0202. It is filed as biochemical. An excerpt:
FIGS. 1A-C show the results of recircularization through ligation of double-stranded linearized plasmid DNA in the presence of increasing amounts of 1,2-PrD. The ligated DNA is subsequently transformed into competent E. coli cells, followed by plating on agar ampicillin selection plates. The extent of successful transformation is illustrated by the numbers of colonies on the plate.
Linearization of the pUC19 plasmid was achieved using AhdI to generate single-base overhangs as described in FIG. 3A. Ligation of the cleaved DNA was performed in a 20 μl ligation reaction containing 100 ng of DNA in the presence and absence of 1,2-PrD and 400 U of T4 DNA ligase was incubated for 20 min at 16° C., then heated to 65° C. for 45 min to inactivate the ligase. Transformation of cells with the ligated DNA was performed using chemically competent NEB Turbo™ cells (NEB, Ipswich, Mass., #C2984H) as described in Example 1 using 2 μl of the ligation mix (containing 10 ng DNA) with an outgrowth period of 20 min.

For test [2], the target named is T1, T4 DNA ligase. The experiment in a line: Ligation efficiency assay (standard assay, various ligases and buffers). It is filed as biochemical. Also noted: purchased NEB (New England Biolabs), Ipswich, Mass. #M0202. As to conditions: 1%-12% 1,2-PrD; various concentrations and types of DNA ligase, regular and Quick Ligase buffers. As for the experimental part: (§1) The reaction mixtures contained DNA at 50-100 ng and 1,2-PrD at different concentrations. 1 μl of regular concentration (NEB, Ipswich, Mass., #M0202; 400 units) or 1 μl of high concentration T4 DNA ligase (NEB, Ipswich, Mass., #M0202; 2000 units) was then added to a final volume of 21 μl in 1×T4 DNA Ligase Buffer (NEB, Ipwich, Mass., #B0202) or 1× Quick Ligase™ Buffer (NEB, Ipswich, Mass., #B2200).
A standard assay uses 100 ng DNA, 1 μl of T4 DNA ligase, 21 μl 1×T4 DNA ligase buffer and varying amounts of enhancer.
Ligation reactions were incubated for 10 min at room temperature (25° C.) unless otherwise stated, then placed on ice for 2 min. In some experiments the ligase was heat-killed by incubation at 65° C. for 20 min. The ligation reactions were analyzed by 1% agarose gel electrophoresis to identify DNA species and determine the efficiency of […].

Test [3] concerns chemically competent DH5 alpha E. coli cells. As to the kind of experiment: Mock ligation with supercoiled pUC19 DNA and transformation (control). It is filed as cell-based. As to conditions: 12% 1,2-PrD; for Transformants from 2 pg SC DNA: supercoiled pUC19. The procedure:
For chemically competent cell transformations, the cell-DNA mixture was incubated on ice for 30 min, heat-shocked at 42° C. for 30 sec, then returned to ice for 5 min. A volume of 950 μl SOC medium (2% vegetable peptone or Tryptone, 0.5% yeast extract, 10 mM NaCl, 2.5 mM KCl, 10 mM MgCl2, 10 mM MgSO4 and 20 mM glucose) was added to the cell-DNA mixture, followed by a one hr 37° C. outgrowth period with agitation. A volume of 25-50 μl of appropriately diluted cells in SOC was spread onto Rich Agar plates (composition per liter: 10 g soy peptone, 5 g yeast extract, 10 g NaCl, 1 g MgCl2-6H2O, 1 g dextrose, 15 grams agar) supplemented with 100 μg/ml ampicillin. Plates were inverted and incubated for 16 hrs at 37° C., followed by quantification of total colony numbers.
Mock DNA ligations were set up with 1 ng of supercoiled pUC19 DNA in 1× regular DNA ligase buffer in the presence and absence of 2000 units T4 DNA ligase and with or without 12% 1,2-PrD. Ligation reactions were conducted using the standard protocol in Example 1 and transformations with chemically competent DH5 alpha E. coli cells. 40 μl of a 1:20 dilution of the 1 ml SOC outgrowth containing 2 pg supercoiled DNA was plated onto agarose plates and incubated overnight.
This illustrates the enhancement is at the ligation step and not the transformation step.

Test [4] has as its target T1, T4 DNA ligase. As to the kind of experiment: Transformants after ligation of AhdI-linearized pUC19 in T4 DNA ligase buffer vs Quick Ligase buffer containing PEG 6000. The following applies: 1,2-PrD in regular ligase buffer, chemically competent cells. The arrangement: purchased NEB (New England Biolabs), Ipswich, Mass. #M0202. It is filed as biochemical. As for the experimental part:
The Y-axis is transformants per 10 pg DNA (transformations w/chemically competent cells.) The X-axis is regular ligase buffer (RLB) with the percentage of added 1,2-PrD given in parentheses. The quick ligase buffer (QLB) has PEG in it to enhance ligation.
as §1
For chemically competent cell transformations, the cell-DNA mixture was incubated on ice for 30 min, heat-shocked at 42° C. for 30 sec, then returned to ice for 5 min. […] Plates were inverted and incubated for 16 hrs at 37° C., followed by quantification of total colony numbers.
Ligations were performed in both buffers using 50 ng of AhdI-linearized pUC19 double-stranded DNA (containing single-base overhangs) following the conditions described in Example 1. A total of 10 pg DNA (40 μl of a 1:20 dilution of the SOC outgrowth) was used per plate and transformants were counted after 16 hrs at 37° C.

Several values for one entry are separate records, joined by “and”; a condition that tells them apart may be missing. Equal values may be shown once. Entries after “also recorded” stand apart in the source; their conditions may differ.

Regarding `CC(O)CO` (stereo not drawn) [1,2-PrD, 1,2-propanediol], the “Transformation levels (number of colonies)” value at T4 DNA ligase [1] is “the greater the number of transformants; also recorded: increased transformation levels”. For the same molecule, the Enhancement of ligation entry at T4 DNA ligase [2] was “consistent enhancement of ligation”. The “Transformants from 2 pg SC DNA” value in test [3] (2000 U T4 DNA ligase, duplicate reactions) is 82 and 73; in test [3] (T4 DNA ligase none), 126. Further, the “Effect on transformation with supercoiled pUC19 DNA” value in test [3] (with or without T4 DNA ligase) is recorded as “not statistically altered; also recorded: does not affect nor interfere with transformation”. The “Transformants per 10 pg DNA compared with PEG-containing Quick Ligase buffer” value at T4 DNA ligase [4] was “enhanced DNA ligation at least as much as PEG containing Quick Ligase; also recorded: achieved the level of transformation expected or greater than in PEG-containing (quick ligase) buffers”.
